From patent US12667568B2, “Compositions and methods for the treatment and diagnosis of cancer” (The General Hospital Corporation, priority 2020, dated 2026)

Legend:
Type in all cases: cell-based
U2OS (EJ5-GFP) cells = assay: EJ5-GFP NHEJ reporter assay; conditions: 2.5 μM/L, 6 h pre-treatment, TRDMT1 wild type cells
Experimental: (§1) FIGS. 6A-6E show TRDMT1 Inhibitors specifically sensitizes cells to DNA damage agents. (FIG. 6A) SCE WT cells were transfected with TA-KR and were cultured with 2.5 μM/L compound YW-1842 or not for 6 hours, m^5C (n=3, 50 cells per replicated, Mean±SD) was stained and quantified. DR-GFP (FIG. 6B) or EJ5-GFP (FIG. 6C) cells were pre-treated with 2.5 μM/L compound YW-1842 for 6 h or TRDMT1 siRNA for 48 h, or DMSO. Then the cells were transfected with NLS-I-SceI plasmid to induce DSB. The efficiency of HR (FIG. 6B) or NHEJ (FIG. 6C) was analyzed by flow-cytometry (n=3, Mean f SD). (FIG. 6D) After seeding, MCF-7, HCC1954, and HCC1937 cells were pre-treated with or without 2.5 μM/L compound YW-1842 for 6 h, then cultured with chemotherapy drugs (1 μM/L Cisplatin; 1 μM/L ATRi AZ20; […]; 1 μM/L PARPi Olaparib for 10 days. The survival rate of these cells was analyzed (n=3, Mean±SD). (FIG. 6E) TRDMT1 KO U2OS cells were transfected with GFP-TRDMT1^WT or GFP-TRDMT1^G155V with or without 2.5 μM/L compound YW-1842, the survival rate of these cells after IR or Cisplatin was shown (n=3, Mean±SD).
(§2) Using a previously described method[Lan, L. et al. The ACF1 complex is required for DNA double-strand break repair in human cells. […] The GFP signal arising from the recombination (HR) or non-homologous end joining (NHEJ) events were measured by flow cytometry.

U2OS (DR-GFP) cells = assay: DR-GFP HR reporter assay; conditions: 2.5 μM/L, 6 h pre-treatment, versus DMSO
Experimental: as §1, §2

TRDMT1 KO U2OS cells = assay: Cell survival assay in TRDMT1 KO cells after IR or Cisplatin; conditions: 2.5 μM/L
Experimental: as §1
Approximately 500 U2OS/TRDMT1 KO U2OS/MCF-7/HCC1954/HCC1937 cells and TRDMT1 siRNA or GFP-TRDMT1 WT/G155V/K251R transfected cells were seeded in 6 cm dish with or without TRDMT1 inhibitors (2.5 μM/L). […]

γ-H2AX foci = γ-H2AX foci clearance after damage; conditions: 2.5 μM/L YW-1842, cells after IR
Experimental: FIGS. 6F-6G show TRDMT1 inhibitor YW-1842 delays the repair of DSBs at the transcribed genome. (FIG. 6F) U2OS or MCF7 cells were treated with or without compound YW-1842 at the indicated concentration. […]
Cells for immunofluorescence observation were fixed in 4% PFA (Affymetrix, 19943 1 LT) at room temperature for 15 min and further treated with 0.2% triton for 10 min. They were then blocked by 3% BSA (SIGMA, A-7030) at room temperature for 1 h. Primary antibody for RAD51(ab63801, Abcam, 1:200)), RAD52(sc-365341, Santa Cruz, CA, USA, 1:500), TRIM28 (ab10484, Abcam, 1:500), γH2AX ser139 (JBW301, 05-636, EMD Millipore, 1:200), were incubated with cells at 4° C. overnight. After washing with 0.05% PBS-Tween (PBST), the cells were incubated with secondary antibody for 1 h at room temperature.

[1] = system: HST578, MBAMD231, HCC1937, HCC1954 cancer cells; assay: Cell survival assay, TRDMT1i alone (Example 19)
Experimental: FIGS. 14A-14C show TRDMT1i alone reduce cancer cell survival in a dose-dependent manner. (FIG. 14A) Survival rate of HR proficient (HR+) HST578 cancer cells with and without siBRCA1 and/or TRDMT1i YW-1842 at indicated dose. The survival rate of these cells was analyzed (n=3, Mean±SD). (FIG. 14B) Survival rate of MBAMD231 (HR+) and HCC1937 (HRD) cells. The survival rate of these cells was analyzed (n=3, Mean±SD). (FIG. 14C) Cell survival rate in different cancer cell lines via colony-forming assay with the treatment of Imatinib at indicated dose (n=3, mean+/−S.D.). Cell lines are listed in order with the expression level from SYCP2high to SYCP2low.
Cells were seeded in each 6-cm dish and cultured as described above. They were treated with drugs with indicated dose in medium after seeding. After 7-10 days, colonies were fixed and stained with 0.3% crystal violet in methanol, and the number of colonies was counted manually.

[2] = system: MCF-7, HCC1954, and HCC1937 cells; assay: Cell survival assay, YW-1842 with DNA damaging agents, IR or H2O2
Experimental: as §1
MCF-7, HCC1954, and HCC1937 cells were pre-treated with or without TRDMT1 inhibitor YW-1842 (2.5 μM) for 6 hrs, then the cells were exposed to IR or H2O2, and cultured for 7-14 days. The survival rate of these cells was analyzed (n=3, Mean±SD)
(§3) Approximately 500 U2OS/TRDMT1 KO U2OS/MCF-7/HCC1954/HCC1937 cells and TRDMT1 siRNA or GFP-TRDMT1 WT/G155V/K251R transfected cells were seeded in 6 cm dish with or without TRDMT1 inhibitors (2.5 μM/L). 6 hrs after seeding, cells were exposed to cisplatin (1134357, Sigma, 1 μM/L), ATMi (KU55933, C9867, Sigma, 1 μM/L), ATRi (AZ20, 57050, Selleck, 1 μM/L) or PARPi (Olaparib, AZD2461, Sigma, 1 μM/L) at indicated concentration or ionizing radiation (IR). After 7-14 days, colonies were fixed and stained with 0.3% crystal violet in methanol, and the number of colonies was counted manually.

U2OS or MCF7 cells = assay: Cell survival assay, YW-1842 alone; conditions: concentration below 5 μM/L
Experimental: FIGS. 6F-6G show TRDMT1 inhibitor YW-1842 delays the repair of DSBs at the transcribed genome. (FIG. 6F) U2OS or MCF7 cells were treated with or without compound YW-1842 at the indicated concentration. The survival rate of these cells was shown (n=3, Mean±SD). (FIG. 6G) SCE WT cells were transfected with TA-KR and were cultured with […] YW-1842 or not for 6 hours, γ-H2AX (n=3, 50 cells per replicated, Mean±SD) were stained and quantified.
as §3

COc1cc2nc(-n3cc(-c4ccc(S(C)(=O)=O)cc4)cn3)nc(-c3ccsc3)c2cc1OC [YW-1842, 6,7-dimethoxy-2-(4-(4-(methylsulfonyl)phenyl)-1H-pyrazol-1-yl)-4-(thiophen-3-yl)quinazoline] was tested, and the “non-homologous end joining (NHEJ) efficiency” value (U2OS (EJ5-GFP) cells) was “no obvious changes”, the “HR-mediated repair of I-SceI-generated DSBs (DR-GFP)” value (U2OS (DR-GFP) cells) was “diminished the repair of I-SceI-generated DSBs” and the “sensitization of TRDMT1 KO cells to IR or Cisplatin” value (TRDMT1 KO U2OS cells) was “does not sensitize TRDMT1 KO”. The “DNA repair efficiency, clearance of γ-H2AX foci” value (γ-H2AX foci) was “delayed clearance of γ-H2AX foci”, the “sensitivity of HR deficient cells to TRDMT1i alone” value ([1]; HCC1937 (HRD) versus MBAMD231 (HR+)) was “more sensitive” and the “killing of HCC1954” value ([1]; HCC1954, HRD, high SYCP2) was “efficiently killed HCC1954”. The “cancer cell survival, TRDMT1i alone” value ([1]; HR-proficient HST578 cells) was “kills HR-proficient cancer cells HST578 in a dose-dependent manner”, the “TRDMT1i sensitivity on BRCA1 knockdown” value ([1]; HST578 cells with siBRCA1) was “significantly increased TRDMT1i sensitivity” and the “killing across cancer cell lines by SYCP2 level and HR status” value ([1]; cell lines ordered SYCP2high to SYCP2low (FIG. 14C)) was “killed SYCP2-high cancer cell lines and HR deficient cells the most efficiently”. The “survival rate in combination with H2O2” value ([2]; 2.5 μM, combined with H2O2, versus DMSO) was “decreased the survival rate of all the three cell lines”, the “sensitization to DNA damaging agents (survival rate)” value ([2]; 2.5 μM/L with Cisplatin, ATRi AZ20, ATMi KU55933 or PARPi Olaparib, versus single treatment) was “sensitizes the cells to above DNA damaging agents” and the “cell killing by compound alone” value ([2]; 2.5 μM/L, alone) was “does not kill cells alone”. The “synergy with PARPi Olaparib” value ([2]; YW-1842 2.5 μM, Olaparib at 1, HCC 1954 cell lines) was “strong synergy” and the antiproliferative effect (U2OS or MCF7 cells) was “did not prohibit cell proliferation”.
